We go through four molecules from patent EP1326493B1, “AGROCHEMICAL COMPOSITION CONTAINING ACTIVITY-ENHANCING ADJUVANTS” (Syngenta Limited, priority 2000, dated 2002).

Series [1] in a line: Dynamic surface tension, maximum bubble pressure method (Lauda MPT-2). The format is physicochemical. As for the experimental part:
Dynamic surface tension can be measured using the maximum bubble pressure method. Various commercial instruments are available for measuring dynamic surface tension by the maximum bubble pressure method, for example the Lauda MPT-2 maximum bubble pressure instrument. The dynamic surface tension at 40msecs is determined from the maximum pressure in a bubble blown from a capillary inserted into a surfactant solution, for a bubble surface lifetime of 40msecs.
The dynamic surface tension measurements were carried out with a Lauda MPT-2 maximum bubble pressure tensiometer. The dynamic surface tension at 40 msecs was determined from the maximum pressure in a bubble blown from a capillary inserted into a surfactant solution, for a bubble surface lifetime of 40 msecs. The dynamic surface tensions were determined for solutions containing 0.1%, 0.2% or 0.5% by weight of the second adjuvant in deionised water at 20°C. For comparison, the dynamic surface tension of a 0.5% by weight solution of 2-ethylhexyl amine 8EO adjusted to pH4 with dilute hydrochloric acid (to protonate the amine) was also determined at 20°C.

For series [2], the system named is Lolium perenne (LOLPE). The experiment in a line: Field efficacy test of potassium glyphosate with adjuvants. The format is in vivo. The conditions noted are these: potassium glyphosate + 0.2% adjuvant, mean across 100, 200, 400 and 600 g glyphosate acid/ha, 33 days after application. The text has this:
(§1) Potassium glyphosate, in combination with the adjuvants specified below in Table 3, was applied to Lolium perenne (LOLPE), Avena fatua (AVEFA) and Chenopodium album (CHEAL) drilled as rows in the field, at a spray application volume of […]. Application rates were 100, 200, 400 and 600 g glyphosate acid/ha and each treatment was replicated 3 times. Data (mean of the three replicates and across all rates) is presented for a visual assessment of % control carried out 33 days after application, where 0 = unaffected and 100% = complete kill Table 3.

Series [3] relates to Avena fatua (AVEFA). The series is described as above. The series is classed as in vivo. The conditions noted are these: potassium glyphosate + 0.2% adjuvant, mean across 100, 200, 400 and 600 g glyphosate acid/ha, 33 days after application.
Source text: as §1

The subject of series [4] is Chenopodium album (CHEAL). The series is described as above. The format is in vivo. The conditions noted are these: potassium glyphosate + 0.2% adjuvant, mean across 100, 200, 400 and 600 g glyphosate acid/ha, 33 days after application.
Source text: as §1

For series [5], the system named is Sorgham halepense (SORHA). Kind of series: Glass-house comparative efficacy test of potassium glyphosate with adjuvants. The series is classed as in vivo. The conditions noted are these: potassium glyphosate 240 g acid equivalent/ha, 21 days after treatment. As for the experimental part:
(§2) Potassium glyphosate was applied at 240 g glyphosate acid equivalent/ha to Chenopodium album (CHEAL), Echinochloa crus-galli (ECHCG) and Sorgham halepense (SORHA) plants grown in the glass-house. All treatments were made up in deionised water and applied using a tracksprayer with a 11002 nozzle at a spray application volume of […]. All treatments were replicated 4 times. After spraying the plants were laid out in a glass-house and maintained at a temperature of 24°C by day and 16°C by night. The Agrimul PG2067 and Synperonic PEL62 adjuvants were used in a proportion 0.2% w/v. The adjuvant 2-ethylhexyl amine 8EO was used at both 0.2%w/v and 0.3%w/v. The adjuvant Sodium dodecyl sulphate was used in a proportion of 0.3%w/v. When applied as binary blends all adjuvants were used in a proportion of 0.1%w/v except Sodium dodecyl sulphate which was applied at 0.2%w/v. A visual assessment of % control, where 0=unaffected and 100=complete kill, was carried out 21 days after treatment.

Series [6] deals with Chenopodium album (CHEAL). The series is described as above. The format is in vivo. The conditions noted are these: potassium glyphosate 240 g acid equivalent/ha, 21 days after treatment. As for the experimental part:
as §2

Series [7] deals with Echinochloa crus-galli (ECHCG). The description is as above. The format is in vivo. The conditions noted are these: potassium glyphosate 240 g acid equivalent/ha, 21 days after treatment. On the procedure: as §2
Series [8] has as its system Daphnia magna. The experiment in a line: Daphnia magna immobilisation ecotoxicity test. The series is classed as in vivo. As for the experimental part:
The following ecotoxicity results were obtained for various alkyl amine alkoxylates using the following test method. First instar Daphnia magna (less than 24 hrs old), obtained from cultures were exposed to a range of concentrations of the test amine ethoxylates in hard blended water (160-180 mg CaCO3 /litre). 10 Daphnia magna were added to each vessel which were then placed at ∼20 degrees C on a 16/8 light/dark day. Organisms were assessed at 24 and 48 hours, the effect observed being immobilisation after gentle agitation. The EC50 values were calculated using a statistical package, the 95% confidence limits are quoted in brackets.
The amine ethoxylates were tested in the presence of potassium glyphosate in order to protonate the amine. […] The remaining adjuvants were tested in the absence of potassium glyphosate. It can be seen that the ecotoxicity of the alkyl amine alkoxylates 3 to 6 falling within the definition of the present invention was very much lower that that for the nearest previously known compounds 1 to 2. It will be appreciated that the higher the EC50 value, the lower the toxicity.

Converted amounts (≈) assume the structure as drawn.

In the case of 2-ethylhexyl amine 8EO [Number 3], the “Dynamic Surface Tension at 40 msecs” value in series [1] (0.5% by weight solution adjusted to pH4 with dilute hydrochloric acid, 20°C) was found to be 64 mNm^-1. In series [2], the “visual assessment of % control LOLPE” value turned out to be 47%. Further, the “visual assessment of % control AVEFA” value in series [3] turned out to be 68%. The “visual assessment of % control CHEAL” value in series [4] turned out to be 74%; in series [6] (single adjuvant 0.2%) it was 59%. Moreover, the “visual assessment of % control SORHA” value in series [5] (single adjuvant 0.2%) is 74%; in series [5] (single adjuvant 0.3%), 75%. The “visual assessment of % control ECHCG” value was found to be 63% in series [7] (single adjuvant 0.2%) and 64% in series [7] (single adjuvant 0.3%).

With `CCCCCCCCCCCCOS(=O)(=O)O` [Number 9], the EC50 (as a rule, the concentration giving half of the maximal effect) in series [8] (Daphnia magna, 48 hours, immobilisation, tested in the absence of potassium glyphosate, 95% confidence limits in brackets, read-out: Daphnia toxicity EC50) is 16 µg/mL (≈ 60.1 µM).

As to `CCCCCCCCCCCCOS(=O)(=O)[O-].[Na+]` [Number 9, Sodium dodecyl sulphate, reference compound], the “Dynamic Surface Tension at 40 msecs” value in series [1] (0.2% by weight in deionised water at 20°C) amounted to 53 mNm^-1; in series [1] (0.5% by weight in deionised water at 20°C), 39 mNm^-1. For the same molecule, the “visual assessment of % control SORHA” value in series [5] (single adjuvant 0.3%) was 76%. Besides, the “visual assessment of % control ECHCG” value in series [7] (single adjuvant 0.3%) is recorded as 78%.

For the molecule `O=C(O)CNCP(=O)([O-])O.[K+]` [Potassium glyphosate, reference compound], the “contribution to the daphnia toxicity” value in series [8] (potassium glyphosate itself) was “does not make a significant contribution”. The “visual assessment of % control SORHA” value in series [5] (no adjuvant) turned out to be 21%. The “visual assessment of % control CHEAL” value in series [6] (no adjuvant) is given as 3%. In addition, the “visual assessment of % control ECHCG” value in series [7] (no adjuvant) was 48%.
